Patent US20040185128A1, “Use of an extract of the root of balloon-flower for preventing and treating a degenerative brain disease or for enhancing memory” (priority 2001, published 2004)
Blank lines part the entries; values can stand above or below the molecule they belong to.

Assays:
[1] = biological target: T1, recombinant human muscarinic acetylcholine receptor subtype 1 (mAChR-M1) (Homo sapiens, UniProt P11229); assay: Inhibition of [3H]N-methyl-scopolamine binding to muscarinic acetylcholine receptor subtype 1; conditions: control compound, read-out: concentration inhibiting the ligand binding to receptor by 50%
T1 construct: purchased BSR BSR-MM1H; host or cells: Chinese Hamster Ovary (CHO) cells
T1 sequence (P11229 1-460): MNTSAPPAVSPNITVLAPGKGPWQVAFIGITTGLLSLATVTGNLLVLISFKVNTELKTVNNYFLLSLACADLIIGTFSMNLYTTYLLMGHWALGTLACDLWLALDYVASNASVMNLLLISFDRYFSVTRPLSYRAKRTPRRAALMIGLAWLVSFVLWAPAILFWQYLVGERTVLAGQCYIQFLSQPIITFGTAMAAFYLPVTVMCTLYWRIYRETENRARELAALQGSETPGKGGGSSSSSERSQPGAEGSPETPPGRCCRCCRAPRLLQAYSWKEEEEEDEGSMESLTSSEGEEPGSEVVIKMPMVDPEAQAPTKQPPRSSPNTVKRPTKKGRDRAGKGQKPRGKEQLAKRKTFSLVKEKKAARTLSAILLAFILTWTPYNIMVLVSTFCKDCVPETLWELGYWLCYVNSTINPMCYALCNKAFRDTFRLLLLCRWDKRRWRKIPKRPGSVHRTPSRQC
Protocol: The ability of each of the compositions obtained in Example 1 in enhancing acetylcholine activity was measured by examining to what extent the binding of a ligand to muscarin acetylcholine receptor subtype 1(M1) is suppressed. That is, an excess amount of a radioactive isotope-labeled ligand was allowed to react with the receptor, unbound ligand was removed by filtering using a glass fiber filter and the amount of the isotope-labeled ligand on the filter was measured to quantify the amount of ligand bound to receptor, and thus, the effects of the compositions of the present invention was determined.
As the receptor, recombinant human muscarinic acetylcholine receptor subtype 1(mAChR-M1, BSR-MM1H, BSR) expressed in Chinese Hamster Ovary (CHO) cells was used. 250 μl of a deep-frozen (−70° C.) receptor fraction was suspended in 10 ml of phosphate buffer saline (PBS) (pH 7.4) and the concentration of the protein was adjusted to 130 μg/ml.
50 μl of 0.5 nM [^3H] N-methyl-scopolamine (24,605 DPM) (NEN, NET-636) and 10 μl of a test composition were added to each well of 96-well microtiter plate (Inotech harvester). […] The filtermat was dried in a microwave oven and the amount of the ligand bound to the receptor was evaluated by determining the radioactivity with the liquid scintillation counter (MicroBeta 1450 Plus; Wallac, Finland). […]

[2] = biological target: T2, NMDA-receptor (glycine site) (Rattus norvegicus, UniProt P35439); assay: Inhibition of [3H]MDL 105,519 binding to the glycine site of NMDA receptor (rat forebrain fraction); conditions: control compound, read-out: concentration inhibiting the ligand binding to receptor by 50%
T2 construct: Preparation of NMDA Receptor Fraction from Rat's Cerebrum; from tissue; host or cells: forebrain membrane fraction of male Sprague-Dawley rat
Source text: The fact that the compositions of the present invention suppresses neuron damage was confirmed as follows by examining the activity thereof in suppressing the binding formation of NMDA-receptor (glycine site) bound. NMDA (N-Methyl-D-Aspartate) which acts as an excitatory neurotransmitter induces neuron damage.
That is, an excess amount of a radioactive isotope-labeled ligand was allowed to react with the receptor, unbound ligand was removed by filtering using a glass fiber filter and the amount of the isotope-labeled ligand on the filter was measured to quantify the amount of ligand bound to receptor, and thus, the effects of the compositions of the present invention was determined.
Forebrain taken from a male Spargue-Dawley rat was sliced and a 10-fold volume of cold sucrose solution ([…]) was added thereto. The resulting mixture was homogenized (5 strokes) using a Teflon-glass homogenizer, and then centrifuged at 1000 g (10 min., 4° C.). The supernatant was centrifuged at 20000 g (20 min., 4° C.) to obtain a precipitate, a 20-fold volume of cold distilled water was added thereto and homogenized using Brinkman Polytron Homogenizer. […] The protein content was measured according to Bradford method and the protein concentration of suspension was adjusted to 1 mg/ml, divided into several fractions and kept at −70° C. […]

[3] = system: Male rats; assay: Passive-avoidance test after ethanol administration; assay type: in vivo, rat; conditions: 250 mg/kg composition (Tacrine 2.5 mg/kg) daily for a week; 3 g/kg 50% ethanol oral before learning; tested 24 hours later, up to 300 seconds
Protocol: Male rats, each weighing about 18 to 20 g, were raised under a condition of temperature 22±1° C. and 12L/12D photoperiod for 7 days while being allowed free access to food and water and used in the Test after 3 days of acclimatization.
The passive avoidance test composed of consecutively learning and testing procedures was conducted over a period of 2 days (interval: 24hours) using PACS-30 shuttle box system (Columbus Instrument Co.).
30 minutes after the 7th (last) administeration, a 3 g/kg dose of 50% ethanol was orally administered to respective rats. After 1 hour, the rats were placed in the bright area of a room which was divided into a dark and bright areas by a guillotin door and allowed to stay there for 30 seconds (the searching time). The guillotin door was opened to let the rats move to the dark side of the room. […] The time the rats took to move from the bright side to the dark side was measured automatically. […]
24 hours after the learning procedure, test procedure was conducted as follows. After 30 seconds of the searching time and opening of the gillontin door, the time the test animal took to move from the bright side to the dark side (latency time) was measured up to the extent 300 seconds. […]

IC50 [1]: 24 nM
Structure (SMILES): C[N+]1(C)CCC(OC(=O)C(c2ccccc2)c2ccccc2)CC1 [4-DAMP methiodide]

Structure (SMILES): O=C(O)c1cc(=O)c2c(Cl)cc(Cl)cc2[nH]1 [5,7-DCKA, 5,7-Dichlorokynurenic acid]
IC50 [2]: 1000 nM

Structure (SMILES): Nc1c2c(nc3ccccc13)CCCC2 [Comparative group, 9-amino-1,2,3,4-tetrahydroacrine]
Latency Time [3]: 31 s
